What all share (type): in vivo
One assay relates to Sugar beet. The assay is described as follows: Pre-emergence test, sugar beet. To be noted: 250 g of ai/ha, after three weeks, 100% = total destruction. The method, then:
(§1) • Solvent: 5 parts by weight of acetone • Emulsifier: 1 part by weight of alkylaryl polyglycol ether
(§2) To produce a suitable preparation of active compound, 1 part by weight of active compound is mixed with the stated amount of solvent, the stated amount of emulsifier is added and the concentrate is diluted with water to the desired concentration.
(§3) Seeds of the test plants are sown in normal soil. After about 24 hours, the soil is sprayed with the preparation of active compounds such that the particular amounts of active compound desired are applied per unit area. The concentration of the spray liquor is chosen such that the particular amounts of active compound desired are applied in 1000 l of water/ha.
(§4) After three weeks, the degree of damage to the plants is rated in % damage in comparison to the development of the untreated control.
(§5) The figures denote: • 0%=no effect (like untreated control) • 100%=total destruction

For a further assay, the system named is Echinochloa. Briefly: Pre-emergence test, Echinochloa. To be noted: 250 g of ai/ha, after three weeks, 100% = total destruction. How it is done: as §1, §2, §3, §4, §5
The next assay has as its system Tetranychus urticae. The assay is described as follows: Tetranychus test (OP-resistant/dip treatment). To be noted: 100 ppm, bean plants dipped, OP-resistant. How it is done:
Tetranychus Test (OP-Resistant/Dip Treatment)
• Solvent: 7 parts by weight of dimethylformamide • Emulsifier: 2 parts by weight of alkylaryl polyglycol ether
To produce a suitable preparation of active compound, 1 part by weight of active compound is mixed with the stated amounts of solvent and emulsifier, and the concentrate is diluted with emulsifier-containing water to the desired concentration.
Bean plants (Phaseolus vulgaris) which are heavily infested by all stages of the greenhouse […] spider mite (Tetranychus urticae) are dipped into a preparation of active compound of the desired concentration.
After the desired period of time, the effect in % is determined. 100% means that all spider mites have been killed; 0% means that none of the spider mites have been killed.

In assay [1] the test system is larvae of the mustard beetle (Phaedon cochleariae). Briefly: Phaedon larvae test. To be noted: 500 ppm, cabbage leaves dipped. The method, then: (§6) Phaedon larvae Test • Solvent: 7 parts by weight of dimethylformamide • Emulsifier: 2 parts by weight of alkylaryl polyglycol ether To produce a suitable preparation of active compound, 1 part by weight of active compound is mixed with the stated amounts of solvent and emulsifier, and the concentrate is diluted with emulsifier-containing water to the desired concentration. Cabbage leaves (Brassica oleracea) are treated by being dipped into the preparation of active compound of the desired concentration and are populated with larvae of the mustard beetle (Phaedon cochleariae) while the leaves are still moist. After the desired period of time, the kill in % is determined. 100% means that all beetle larvae have been killed; 0% means that none of the beetle larvae have been killed.

Another assay relates to Venturia inaequalis. The assay is described as follows: Venturia test (apple)/protective. To be noted: protective, 10 days after inoculation; for % efficacy: 100 g/ha. The method, then:
(§7) Venturia Test (Apple)/Protective […] To produce a suitable preparation of active compound, 1 part by weight of active compound is mixed with the stated amounts of solvent and emulsifier, and the concentrate is diluted with water to the desired concentration. To test for protective activity, young plants are sprayed with the preparation of active compound at the stated application rate. After the spray coating has dried on, the plants are inoculated with an aqueous conidia suspension of the apple scab pathogen Venturia inaequalis and then remain in an incubation cabin at about 20° C. and 100% relative atmospheric humidity for 1 day.

For assay [2], the system named is peach aphid (Myzus persicae). Briefly: Myzus test. To be noted: 500 ppm, cabbage leaves dipped. The method, then:
as §6, with “Myzus” for “Phaedon larvae”, “oleracea) which are heavily infested by the peach aphid (Myzus persicae)” for “oleracea)”, “concentration.” for “concentration and are populated with larvae of the mustard beetle (Phaedon cochleariae) while the leaves are still moist.”, “aphids” for “beetle larvae”

The next assay concerns Botrytis cinerea. Briefly: Botrytis test (bean)/protective. To be noted: 48 h, protective, 2 days after inoculation, read-out: % efficacy. The method, then:
Botrytis Test (Bean)/Protective
• Solvents: 24.5 parts by weight of acetone • 24.5 parts by weight of dimethylacetamide • Emulsifier: 1.0 part by weight of alkylaryl polyglycol ether
To produce a suitable preparation of active compound, 1 part by weight of active compound is mixed with the stated amounts of solvent and emulsifier, and the concentrate is diluted with water to the desired concentration.
To test for protective activity, young plants are sprayed with the preparation of active compound at the stated application rate. After the spray coating has dried on, 2 small pieces of agar colonized by Botrytis cinerea are placed on each leaf. The inoculated plants are placed in a dark chamber at about 20° C. and 100% relative atmospheric humidity.
2 days after the inoculation, the size of the infected areas on the leaves is evaluated. 0% means an efficacy which corresponds to that of the control, whereas an efficacy of 100% means that no infection is observed.

A further assay concerns Plasmopara viticola. The assay is described as follows: Plasmopara test (grapevine)/protective. To be noted: 144 h, protective, 6 days after inoculation, read-out: % efficacy. How it is done:
as §7, with “Plasmopara” for “Venturia”, “(Grapevine)/Protective” for “(Apple)/Protective”, “spore” for “conidia”, “Plasmopara viticola” for “the apple scab pathogen Venturia inaequalis”, “day. […] The plants are then moistened and placed in an incubation cabin for 1 day.” for “day.”

The test system of the next assay is Setaria. The assay is described as follows: Pre-emergence test, Setaria. To be noted: 250 g of ai/ha, after three weeks, 100% = total destruction. The method, then:
as §1, §2, §3, §4, §5

The test system of the next assay is Phytophthora infestans. To be noted: 750 g/ha; protective; tomato; 7 days after inoculation.
The test system of assay [3] is caterpillars of the armyworm (Spodoptera frugiperda). Briefly: Spodoptera frugiperda test. To be noted: 500 ppm, cabbage leaves dipped. The method, then: as §6, with “Spodoptera frugiperda” for “Phaedon larvae”, “caterpillars” for “larvae”, “armyworm (Spodoptera frugiperda)” for “mustard beetle (Phaedon cochleariae)”, “caterpillars” for “beetle larvae”
In the next assay the test system is Sphaerotheca fuliginea. The assay is described as follows: Sphaerotheca test (cucumber)/protective. To be noted: 100 g/ha, protective, 7 days after inoculation. The method, then:
Sphaerotheca Test (Cucumber)/Protective […] To produce a suitable preparation of active compound, 1 part by weight of active compound is mixed with the stated amounts of solvent and emulsifier, and the concentrate is diluted with water to the desired concentration. To test for protective activity, young plants are sprayed with the preparation of active compound at the stated application rate. After the spray coating has dried on, the plants are inoculated with an aqueous spore suspension of Sphaerotheca fuliginea The plants are then placed in a greenhouse at about 23° C. and a relative atmospheric humidity of about 70%.

A further assay has as its system Alopecurus. The assay is described as follows: Pre-emergence test, Alopecurus. To be noted: 250 g of ai/ha, after three weeks, 100% = total destruction. The method, then: as §1, §2, §3, §4, §5
For a further assay, the system named is Meloidogyne incognita. Briefly: Meloidogyne test. To be noted: 20 ppm, lettuce in sand, 100% = no galls. The method, then: Meloidogyne Test • Solvent: 7 parts by weight of dimethylformamide • Emulsifier: 2 parts by weight of alkylaryl polyglycol ether To produce a suitable preparation of active compound, 1 part by weight of active compound is mixed with the stated amounts of solvent and emulsifier, and the concentrate is diluted with water to the desired concentration. Containers are filled with sand, solution of active compound, Meloidogyne incognita egg/larvae suspension and lettuce seeds. The lettuce seeds germinate and the plants develop. On the roots, galls are formed. After the desired period of time, the nematicidal action is determined in % by the gall formation. 100% means that no galls have been formed; 0% means that the number of galls on the treated plants corresponds to that of the untreated control.

Consider `Cc1ccc(-c2ccc(Cl)cc2)cc1C1(Cl)C(=O)CC2(CCCCC2)C1=O` (stereo not drawn) [Ex. I-1-1], for which, in the assay on Sugar beet, the “% damage, Sugar beet” value turned out to be 0%. The “% damage, Echinochloa” value in the assay on Echinochloa is reported as 100%. The “Kill rate in % after 7d” value (in the assay with Tetranychus urticae; in [1]) was 100% each time. Also, the Emax at 100 g/ha with Venturia inaequalis (Venturia inaequalis, 240 h, read-out: % efficacy) came out at 100%; in the assay with Botrytis cinerea, 96%; in the assay on Plasmopara viticola it was 100%. Besides, the “Kill rate in % after 6d” value in assay [2] came to 80%. Moreover, the “% damage, Setaria” value with Setaria was 90%.
Regarding `Cc1ccc(-c2ccc(Cl)cc2)cc1C1(Cl)C(=O)CC2(CCCC2)C1=O` (stereo not drawn) [Ex. I-1-3], the Efficacy in % in the assay with Phytophthora infestans is given as 80%.
Compound `Cc1ccc(-c2ccc(Cl)cc2)cc1C1(Cl)C(=O)CC2(CCCCCC2)C1=O` (stereo not drawn) [Ex. I-1-4] displayed an Efficacy in % in the assay with Phytophthora infestans of 90%.
Take `CC1(C)CC(=O)C(Cl)(c2cc(-c3ccc(Cl)cc3)ccc2Cl)C(=O)C1` [Ex. I-2-1]: the “% damage, Sugar beet” value with Sugar beet is given as 0%. For the same compound, the “% damage, Echinochloa” value with Echinochloa came out at 90%. In addition, the “Kill rate in % after 7d” value (in [3]; in the assay on Tetranychus urticae; in assay [1]) was 100% throughout. For the same compound, the “% efficacy” value with Venturia inaequalis turned out to be 73%; with Sphaerotheca fuliginea, 97%. For the same compound, in the assay with Phytophthora infestans, the Efficacy in % is 89%. The “% damage, Alopecurus” value in the assay on Alopecurus is on record as 70%. Also, the “% damage, Setaria” value with Setaria was found to be 80%. The “Effect in % after 14d (nematicidal action by gall formation)” value in the assay with Meloidogyne incognita is given as 90%.
For `Cc1ccc(-c2ccc(Cl)cc2)cc1C1(Cl)C(=O)CC2(CCCC2)CC1=O` [Ex. I-2-2], the “% damage, Sugar beet” value in the assay with Sugar beet amounted to 0%. For the same compound, in the assay with Echinochloa, the “% damage, Echinochloa” value was 95%. For the same compound, the “Kill rate in % after 7d” value in assay [3] is reported as 100%; in the assay with Tetranychus urticae it was 98%; in assay [1], 100%. In addition, in the assay with Alopecurus, the “% damage, Alopecurus” value amounted to 90%. Also, the “% damage, Setaria” value with Setaria stood at 90%.
On to `Cc1ccc(-c2ccc(Cl)cc2)cc1C1(Cl)C(=O)CC(C)(C)CC1=O` [Ex. I-2-3], for which the “% damage, Sugar beet” value with Sugar beet is 0%. Also, in the assay with Echinochloa, the “% damage, Echinochloa” value is given as 80%. Also, the “Kill rate in % after 7d” value (in assay [3]; with Tetranychus urticae; in [1]) was 100% in each case. In addition, the “% efficacy” value with Venturia inaequalis was 86%. Besides, the “% damage, Alopecurus” value with Alopecurus is on record as 80%. The “% damage, Setaria” value with Setaria is 90%.
Take `O=C1CC2(CCCC2)CC(=O)C1(Cl)c1cc(Br)ccc1Cl` [Ex. I-2-4]: the “Kill rate in % after 7d” value with Tetranychus urticae was found to be 80%.
Turning to `O=C1CC2(CCCC2)CC(=O)C1(Cl)c1cc(-c2ccc(Cl)cc2)ccc1Cl` [Ex. I-2-5], the “Kill rate in % after 7d” value is 100% in [3], 98% with Tetranychus urticae and 100% in assay [1].
Consider `CC(C)C1CC(=O)C(Cl)(c2cc(Br)ccc2Cl)C(=O)C1` (stereo not drawn) [Ex. I-2-6], for which, in the assay with Meloidogyne incognita, the “Effect in % after 14d (nematicidal action by gall formation)” value is given as 80%.

For the origin of these results see patent US7227043B2, “2-phenyl-2-substituted-1,3-diketones” (Bayer CropScience Ag, priority 2002, dated 2007).
